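Tested at 5 concentrations; 48 h exposure; 96-well plates; endpoints linearly interpolated, else capped at highest concentration. The concentration for full growth arrest is given as TGI.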
How the values were obtained:
Assay in all cases: DTP human tumour cell line panel, 48 h
A549 NSCLC = tested on: A549 NSCLC
CAKI-1 renal = tested on: CAKI-1 renal
HCT-116 colon = tested on: HCT-116 colon
HCT-15 colon = tested on: HCT-15 colon
HS 578T breast = tested on: HS 578T breast
KM12 colon = tested on: KM12 colon
MALME-3M melanoma = tested on: MALME-3M melanoma
OVCAR-3 ovarian = tested on: OVCAR-3 ovarian
OVCAR-4 ovarian = tested on: OVCAR-4 ovarian
RPMI-8226 leukemia = tested on: RPMI-8226 leukemia
RXF 393 renal = tested on: RXF 393 renal
SF-268 CNS = tested on: SF-268 CNS
SF-295 CNS = tested on: SF-295 CNS
SF-539 CNS = tested on: SF-539 CNS
SK-OV-3 ovarian = tested on: SK-OV-3 ovarian
SN12C renal = tested on: SN12C renal
SR leukemia = tested on: SR leukemia
TK-10 renal = tested on: TK-10 renal
U251 CNS = tested on: U251 CNS
UO-31 renal = tested on: UO-31 renal

Row | SMILES | TGI (A549 NSCLC) [µM] | TGI (CAKI-1 renal) [µM] | TGI (HCT-116 colon) [µM] | TGI (HCT-15 colon) [µM] | TGI (HS 578T breast) [µM] | TGI (KM12 colon) [µM] | TGI (MALME-3M melanoma) [µM] | TGI (OVCAR-3 ovarian) [µM] | TGI (OVCAR-4 ovarian) [µM] | TGI (RPMI-8226 leukemia) [µM] | TGI (RXF 393 renal) [µM] | TGI (SF-268 CNS) [µM] | TGI (SF-295 CNS) [µM] | TGI (SF-539 CNS) [µM] | TGI (SK-OV-3 ovarian) [µM] | TGI (SN12C renal) [µM] | TGI (SR leukemia) [µM] | TGI (TK-10 renal) [µM] | TGI (U251 CNS) [µM] | TGI (UO-31 renal) [µM]
1 | CN(C)CCCC12CCCCC1=Nc1ccccc12 (stereo not drawn) | > 100 | > 100 | > 100 | > 100 | > 100 | > 100 | > 100 | > 100 | > 100 | > 100 | > 100 | > 100 | > 100 | > 100 | > 100 | > 100 | 69.2 | > 100 | > 100 | > 100
2 | CCOC(=O)CC[C@H](NC(=O)[C@H](N)Cc1ccc(N(CCCl)CCCl)cc1)C(=O)OCC | > 100 | > 37.1 | > 68 | > 55.7 | 52.7 | 31.8 | 9.92 | 30.2 | > 45.2 | > 100 | 29.7 | 19.7 | > 77.8 | 30.8 | > 72.8 | > 62.4 | > 100 | > 100 | > 59.2 | 29.8
3 | CN1CCN(C(=S)N2CCN(C)CC2)CC1 | > 100 | > 100 | > 100 | > 100 | > 100 | > 100 | > 100 | > 100 | > 100 | > 76.7 | > 100 | > 100 | > 100 | 45.3 | > 100 | > 100 | 0.983 | > 100 | > 100 | > 100
4 | Cn1ccc(C(=O)NCCN(CCNC(=O)c2ccn(C)c(=O)c2O)CCNC(=O)c2cccc(=O)n2O)c(O)c1=O | > 100 | > 100 | > 100 | > 100 | > 100 | > 100 | > 100 | > 100 | > 100 | > 100 | > 100 | > 100 | > 100 | > 100 | > 100 | > 100 | > 100 | – | > 100 | > 100
5 | Nc1nc(SC/C=C/c2ccccc2)c2[nH]cnc2n1 | > 100 | > 100 | > 100 | > 100 | 88.8 | > 100 | > 100 | > 100 | > 100 | > 100 | > 100 | > 100 | > 100 | > 100 | > 100 | > 100 | > 100 | > 100 | > 100 | > 100
6 | N#Cc1c(N)nc2n[nH]c(N)c2c1-c1ccc(Cl)cc1 | > 72.9 | 29.3 | > 100 | > 72.6 | 8.64 | > 100 | 8.69 | 18.2 | > 100 | > 100 | 7.26 | > 100 | 42.7 | 45 | 7.33 | 51.6 | > 100 | – | > 55 | 19.9
